Legend:
cotton = assay: Test C preemergence/postemergence greenhouse plant response rating 0 to 100; type: in vivo, Gossypium hirsutum; settings: for Plant response rating, Cotton: 0 to 100 scale
Text: (§1) The compounds evaluated in this test were formulated in a non-phytoxic solvent and applied to the soil surface before plant seedlings emerged (preemergence application), to water that covered the soil surface (flood application), and to plants that were in the one-to-four leaf stage (postemergence application). A sandy loam soil was used for the preemergence and postemergence tests, while a silt loam soil was used in the flood test. Water depth was approximately 2.5 cm for the flood test and was maintained at this level for the duration of the test. Plant species in the preemergence and postemergence tests consisted of barley (Hordeum vulgare), bedstraw (Galium aparine), blackgrass (Alopecurus myosuroides), chickweed (Stellaria media), corn (Zea mays), cotton (Gossypium hirsutum), crabgrass (Digitaria sanguinalis), downy brome (Bromus tectorum), giant foxtail (Setaria faberii), lambsquarters (Chenopodium album), morningglory (Ipomoea hederacea), pigweed ([…]), rape (Brassica napus), ryegrass (Lolium multiflorum), sorghum (Sorghum bicolor), soybean (Glycine max), speedwell (Veronica persica), sugar beet (Beta vulgaris), velvetleaf (Abutilon theophrasti), wheat (Triticum aestivum), wild buckwheat (Polygonum convolvulus), and wild oat (Avena fatua). All plant species were planted one day before application of the compound for the preemergence portion-of this test. Plantings of these species were adjusted to produce plants of appropriate size for the post-emergence portion of the test. […] All plant species were grown using normal greenhouse practices. Visual evaluations of injury expressed on treated plants, when compared to untreated controls, were recorded approximately fourteen to twenty one days after application of the test compound. […] A dash (-) response means no test result.

giant foxtail = assay: as above; type: in vivo, Setaria faberii; settings: for Plant response rating, Giant foxtail: 0 to 100 scale
Text: as §1

lambsquarters = assay: as above; type: in vivo, Chenopodium album; settings: for Plant response rating Lambsquarters: 0 to 100 scale
Text: as §1

pigweed = assay: as above; type: in vivo, Amaranthusretroflexus; settings: for Plant response rating Pigweed: 0 to 100 scale
Text: as §1

soybean = assay: as above; type: in vivo, Glycine max; settings: for Plant response rating, Soybean: 0 to 100 scale
Text: as §1

velvetleaf = assay: as above; type: in vivo, Abutilon theophrasti; settings: for Plant response rating, Velvetleaf: 0 to 100 scale
Text: as §1

umbrella sedge = assay: Test C flood test plant response rating 0 to 100; type: in vivo, Cyperus difformis; settings: for Plant response rating Umbrella sedge: flood test species listed under POSTEMERGENCE, 0 to 100 scale
Text: as §1

duck salad = assay: Test C flood test plant response rating 0 to 100; type: in vivo, Heteranthera limosa; settings: for Plant response rating Duck salad: flood test species listed under POSTEMERGENCE, 0 to 100 scale
Text: as §1

[1] = POSTEMERGENCE section, flood test, Rate 4 g/ha
[2] = Rate 16 g/ha, under POSTEMERGENCE head (flood test species)

`C#CCOc1cc(-c2nn3c(c2Br)CCCC3)c(F)cc1Cl` [Compound 26] was tested, and the “Plant response rating, Cotton” value (cotton; PREEMERGENCE, 62 g/ha) was 0, the “Plant response rating, Cotton” value (cotton; PREEMERGENCE, 250 g/ha) was 100 and the “Plant response rating (0 to 100), Cotton” value (cotton; PREEMERGENCE, Rate 4 g/ha) was 0. The “Plant response rating (0 to 100), Cotton” value (cotton; Rate 16 g/ha, POSTEMERGENCE) was 100, the “Plant response rating (0 to 100), Cotton” value (cotton; Rate 16 g/ha, PREEMERGENCE) was 0 and the “Plant response rating, Giant foxtail” value (giant foxtail; POSTEMERGENCE, 62 g/ha) was 50. The “Plant response rating, Giant foxtail” value (giant foxtail; POSTEMERGENCE, 250 g/ha) was 70, the “Plant response rating (0 to 100), Giant foxtail” value (giant foxtail; POSTEMERGENCE, Rate 4 g/ha) was 0 and the “Plant response rating, Giant foxtail” value (giant foxtail; PREEMERGENCE, 62 g/ha) was 70. The “Plant response rating, Giant foxtail” value (giant foxtail; PREEMERGENCE, 250 g/ha) was 100, the “Plant response rating (0 to 100), Giant foxtail” value (giant foxtail; PREEMERGENCE, Rate 4 g/ha) was 0 and the “Plant response rating (0 to 100), Giant foxtail” value (giant foxtail; Rate 16 g/ha, POSTEMERGENCE) was 40. For the same compound, the “Plant response rating (0 to 100), Giant foxtail” value (giant foxtail; Rate 16 g/ha, PREEMERGENCE) was 30, the “Plant response rating Lambsquarters” value (lambsquarters; POSTEMERGENCE, 62 g/ha) was 100 and the “Plant response rating Lambsquarters” value (lambsquarters; POSTEMERGENCE, 250 g/ha) was 100. For the same compound, the “Plant response rating (0 to 100), Lambsquarters” value (lambsquarters; POSTEMERGENCE, Rate 4 g/ha) was 80, the “Plant response rating Lambsquarters” value (lambsquarters; PREEMERGENCE, 62 g/ha) was 100 and the “Plant response rating Lambsquarters” value (lambsquarters; PREEMERGENCE, 250 g/ha) was 100. The “Plant response rating (0 to 100), Lambsquarters” value (lambsquarters; PREEMERGENCE, Rate 4 g/ha) was 80, the “Plant response rating (0 to 100), Lambsquarters” value (lambsquarters; Rate 16 g/ha, POSTEMERGENCE) was 80 and the “Plant response rating (0 to 100), Lambsquarters” value (lambsquarters; Rate 16 g/ha, PREEMERGENCE) was 100. The “Plant response rating Pigweed” value (pigweed; POSTEMERGENCE, 62 g/ha) was 100, the “Plant response rating Pigweed” value (pigweed; POSTEMERGENCE, 250 g/ha) was 100 and the “Plant response rating (0 to 100), Pigweed” value (pigweed; POSTEMERGENCE, Rate 4 g/ha) was 100. For the same compound, the “Plant response rating Pigweed” value (pigweed; PREEMERGENCE, 62 g/ha) was 100, the “Plant response rating Pigweed” value (pigweed; PREEMERGENCE, 250 g/ha) was 100 and the “Plant response rating (0 to 100), Pigweed” value (pigweed; PREEMERGENCE, Rate 4 g/ha) was 30. The “Plant response rating (0 to 100), Pigweed” value (pigweed; Rate 16 g/ha, POSTEMERGENCE) was 100, the “Plant response rating (0 to 100), Pigweed” value (pigweed; Rate 16 g/ha, PREEMERGENCE) was 100 and the “Plant response rating, Soybean” value (soybean; POSTEMERGENCE, 62 g/ha) was 60. For the same compound, the “Plant response rating, Soybean” value (soybean; POSTEMERGENCE, 250 g/ha) was 60, the “Plant response rating (0 to 100), Soybean” value (soybean; POSTEMERGENCE, Rate 4 g/ha) was 20 and the “Plant response rating, Soybean” value (soybean; PREEMERGENCE, 250 g/ha) was 100. For the same compound, the “Plant response rating (0 to 100), Soybean” value (soybean; PREEMERGENCE, Rate 4 g/ha) was 0, the “Plant response rating (0 to 100), Soybean” value (soybean; Rate 16 g/ha, POSTEMERGENCE) was 50 and the “Plant response rating (0 to 100), Soybean” value (soybean; Rate 16 g/ha, PREEMERGENCE) was 0. The “Plant response rating, Velvetleaf” value (velvetleaf; POSTEMERGENCE, 62 g/ha) was 100, the “Plant response rating, Velvetleaf” value (velvetleaf; POSTEMERGENCE, 250 g/ha) was 100 and the “Plant response rating (0 to 100), Velvetleaf” value (velvetleaf; POSTEMERGENCE, Rate 4 g/ha) was 90. The “Plant response rating, Velvetleaf” value (velvetleaf; PREEMERGENCE, 250 g/ha) was 100, the “Plant response rating (0 to 100), Velvetleaf” value (velvetleaf; PREEMERGENCE, Rate 4 g/ha) was 50 and the “Plant response rating (0 to 100), Velvetleaf” value (velvetleaf; Rate 16 g/ha, POSTEMERGENCE) was 100. For the same compound, the “Plant response rating (0 to 100), Velvetleaf” value (velvetleaf; Rate 16 g/ha, PREEMERGENCE) was 90, the “Plant response rating (0 to 100), Umbrella sedge” value (umbrella sedge; [1]) was 0 and the “Plant response rating (0 to 100), Umbrella sedge” value (umbrella sedge; [2]) was 70. For the same compound, the “Plant response rating Umbrella sedge” value (umbrella sedge; 62 g/ha) was 95, the “Plant response rating Umbrella sedge” value (umbrella sedge; 250 g/ha) was 100 and the “Plant response rating (0 to 100), Duck salad” value (duck salad; [1]) was 55. The “Plant response rating (0 to 100), Duck salad” value (duck salad; [2]) was 60, the “Plant response rating Duck salad” value (duck salad; 62 g/ha) was 70 and the “Plant response rating Duck salad” value (duck salad; 250 g/ha) was 90.

Reference: US6358885B1, “Substituted phenylheterocyclic herbicides” (Mississippi State University, priority 1992, dated 2002)
